Test results: ChEMBL document CHEMBL2150966, “Discovery of a novel series of potent and orally bioavailable phosphoinositide 3-kinase γ inhibitors” (J Med Chem, 2012)
Converted amounts (≈) assume the structure as drawn.

Legend:
[1] = Apparent permeability across apical to basolateral side of MDCK cells; format: ADME, cell-based, Canis lupus familiaris; details: dog
[2] = Plasma concentration in C57BL6 mouse at 100 mg/kg, po after 1 hr; format: ADME, organism-based; design: dose 100 mg/kg, route oral
[3] = Plasma concentration in C57BL6 mouse at 100 mg/kg, po after 4 hr; format: ADME, organism-based; design: dose 100 mg/kg, route oral
[4] = Kinetic solubility of compound in PBS at pH 7.4; format: physicochemical; details: read-out: Kinetic_solubility
in vivo = details: BALB/c, mouse, plasma, po, 100 mg/kg
[5] = Drug metabolism in mouse liver microsome assessed as compound oxidation after 30 mins; format: ADME; details: liver microsomes, read-out: Drug metabolism
[6] = Half life in Sprague-Dawley rat at 5 mg/kg, po; format: ADME, organism-based; design: dose 5 mg/kg, route oral; details: in vivo
[7] = AUC (0 to infinity) in Sprague-Dawley rat at 5 mg/kg, po; format: ADME, organism-based; design: time infinity, dose 5 mg/kg, route oral; details: plasma
[8] = Oral bioavailability Sprague-Dawley rat at 5 mg/kg; format: ADME, organism-based; details: in vivo
[9] = Cmax in Sprague-Dawley rat at 5 mg/kg, po; format: ADME, organism-based; design: dose 5 mg/kg, route oral; details: in vivo
[10] = Lipophilicity of compound, Log D; format: physicochemical; details: octanol/water

Row | Structure (SMILES) | Papp A→B [1] | concentration at 1 h [2] | concentration at 4 h [3] | further results
1 | CNC(=O)c1nc(-c2ccc(Cl)c(S(=O)(=O)Nc3cccc(Cl)c3)c2)cnc1N | 10 ×10⁻⁶ cm/s | 1.3 µM | 0.1 µM | solubility kinetic [4]: < 1 µM
2 | Nc1cnc(-c2ccc(Cl)c(S(=O)(=O)Nc3cccc(F)c3F)c2)cn1 | 10 ×10⁻⁶ cm/s | – | – | –
3 | CNC(=O)c1nc(-c2ccc(Cl)c(S(N)(=O)=O)c2)cnc1N | 10 ×10⁻⁶ cm/s | – | – | –
4 | CNC(=O)c1nc(-c2ccc(Cl)c(S(=O)(=O)NCC(F)(F)F)c2)cnc1N | 10 ×10⁻⁶ cm/s | – | – | solubility kinetic [4]: 211 µM (≈ 89.4 µg/mL)
5 | CNC(=O)c1nc(-c2ccc(Cl)c(S(=O)(=O)Nc3ccc(F)cc3Cl)c2)cnc1N | 10 ×10⁻⁶ cm/s | 64.8 µM | 19.2 µM | concentration at 4 h (in vivo): 20.3 µM
6 | CNC(=O)c1nc(-c2ccc(Cl)c(S(=O)(=O)Nc3cccc(F)c3C)c2)cnc1N | 10 ×10⁻⁶ cm/s | 13.1 µM | 6.2 µM | half-life [6]: 2.08 h; AUC(0-inf) [7]: 26.8 µM·h; bioavailability [8]: 66.2%; Cmax [9]: 9.1 µM; concentration at 4 h (in vivo): 9.2 µM
7 | Nc1ncc(-c2ccc(Cl)c(S(=O)(=O)Nc3cccc(F)c3F)c2)c(OCC(F)(F)F)n1 | 10 ×10⁻⁶ cm/s | – | – | –
8 | CNC(=O)c1nc(-c2ccc(Cl)c(S(=O)(=O)Nc3cccc(F)c3Cl)c2)cnc1N | 10 ×10⁻⁶ cm/s | 237 µM | 39.8 µM | –
9 | CNC(=O)c1nc(-c2ccc(Cl)c(S(=O)(=O)Nc3cccc(C(F)(F)F)c3)c2)cnc1N | 10 ×10⁻⁶ cm/s | 1.7 µM | 0.4 µM | –
10 | CNC(=O)c1nc(-c2ccc(Cl)c(S(=O)(=O)Nc3cccc(Cl)c3Cl)c2)cnc1N | 10 ×10⁻⁶ cm/s | 173 µM | 22.1 µM | –
11 | CNC(=O)c1nc(-c2ccc(Cl)c(S(=O)(=O)Nc3ccc(Cl)cc3)c2)cnc1N | 10 ×10⁻⁶ cm/s | – | – | –
12 | CNC(=O)c1nc(-c2ccc(Cl)c(S(=O)(=O)Nc3ccccc3)c2)cnc1N | 10 ×10⁻⁶ cm/s | – | – | –
13 | CNC(=O)c1nc(-c2ccc(Cl)c(S(=O)(=O)NC)c2)cnc1N | 10 ×10⁻⁶ cm/s | – | – | –
14 | CNC(=O)c1nc(-c2ccc(Cl)c(S(=O)(=O)Nc3cccc(F)c3)c2)cnc1N | 10 ×10⁻⁶ cm/s | 1.6 µM | 1 µM | –
15 | CS(=O)(=O)N1CCN(Cc2cc3nc(-c4cccc5[nH]ncc45)nc(N4CCOCC4)c3s2)CC1 [PICTILISIB] | – | – | – | concentration at 4 h (in vivo): 5.3 µM
16 | CNC(=O)c1nc(-c2cccc(-c3nnn[nH]3)c2)cnc1N | – | – | – | solubility kinetic [4]: 424 µM (≈ 126 µg/mL); logD [10]: 0.47
17 | CNC(=O)c1nc(-c2ccc(Cl)c(S(=O)(=O)Nc3cccc(F)c3F)c2)cnc1N | 55 ×10⁻⁶ cm/s | 333 µM | 119 µM | half-life [6]: 4.44 h; AUC(0-inf) [7]: 449 µM·h; solubility kinetic [4]: 176 µM (≈ 79.9 µg/mL); bioavailability [8]: 76.7%; Cmax [9]: 42.5 µM; concentration at 4 h (in vivo): 43.1 µM
18 | CNC(=O)c1nc(-c2ccc(Cl)c(S(=O)(=O)Nc3ccc(Cl)cc3Cl)c2)cnc1N | 10 ×10⁻⁶ cm/s | 21.3 µM | 8.6 µM | concentration at 4 h (in vivo): 6.5 µM
19 | CNC(=O)c1nc(-c2cnc(N)c(S(=O)(=O)Nc3ccccc3)c2)cnc1N | 10 ×10⁻⁶ cm/s | – | – | –
20 | CNC(=O)c1nc(-c2ccc(F)c(S(=O)(=O)Nc3ccccc3)c2)cnc1N | 10 ×10⁻⁶ cm/s | – | – | –
21 | CNC(=O)c1nc(-c2ccc(Cl)c(S(=O)(=O)Nc3ccccc3Cl)c2)cnc1N | 10 ×10⁻⁶ cm/s | 59.1 µM | 9.6 µM | solubility kinetic [4]: 24 µM (≈ 10.9 µg/mL)

More lines, main results first:

Row | Papp A→B [1] | concentration at 1 h [2] | concentration at 4 h [3] | Structure (SMILES) | further results
22 | 10 ×10⁻⁶ cm/s | – | – | CNC(=O)c1nc(-c2ccc(OC)c(S(=O)(=O)Nc3ccccc3)c2)cnc1N | –
23 | 10 ×10⁻⁶ cm/s | 0.7 µM | 0.09 µM | CNC(=O)c1nc(-c2ccc(Cl)c(S(=O)(=O)Nc3cccc(OC)c3)c2)cnc1N | –
24 | 10 ×10⁻⁶ cm/s | – | – | Nc1ncc(-c2ccc(Cl)c(S(=O)(=O)Nc3cccc(F)c3F)c2)cn1 | –
25 | 10 ×10⁻⁶ cm/s | – | – | CNC(=O)c1nc(-c2ccc(Cl)c(NS(=O)(=O)c3cccc(Cl)c3)c2)cnc1N | –
26 | – | 0.7 µM | 0.1 µM | CC(C)c1ccc(-c2nccnc2N2CCN(S(=O)(=O)c3cccc(-c4cnc(N)nc4)c3)CC2)cc1 | metabolised at 0.5 h [5]: 79%
27 | – | 12.9 µM | 3.2 µM | CC(C)c1ccc(-c2ncccc2N2CCN(S(=O)(=O)c3cccc(-c4cnc(N)nc4)c3)CC2)cc1 | half-life [6]: 1.82 h; AUC(0-inf) [7]: 0.9 µM·h; solubility kinetic [4]: < 5 µM; logD [10]: > 4; metabolised at 0.5 h [5]: 37%; bioavailability [8]: 12.7%
28 | 10 ×10⁻⁶ cm/s | – | – | CNC(=O)c1nc(-c2cccc(S(=O)(=O)Nc3cccc(F)c3F)c2)cnc1N | –
29 | – | 0.5 µM | 0.1 µM | COc1ccc(-c2cccc(S(=O)(=O)N3CCN(c4nccnc4-c4ccc(OC)cc4)CC3)c2)cc1 | –
30 | 10 ×10⁻⁶ cm/s | – | – | CNC(=O)c1nc(-c2cccc(S(=O)(=O)Nc3ccccc3)c2)cnc1N | –
31 | 10 ×10⁻⁶ cm/s | – | – | CNC(=O)c1nc(-c2cccc(NS(=O)(=O)c3cccc(Cl)c3)c2)cnc1N | –
32 | 10 ×10⁻⁶ cm/s | 0.6 µM | 0.4 µM | CNC(=O)c1nc(-c2cccc(S(=O)(=O)Nc3cccc(Cl)c3)c2)cnc1N | –
33 | 10 ×10⁻⁶ cm/s | – | – | COc1nc(N)ncc1-c1ccc(Cl)c(S(=O)(=O)Nc2cccc(F)c2F)c1 | –
34 | 10 ×10⁻⁶ cm/s | – | – | CNC(=O)c1nc(-c2ccc(Cl)c(S(=O)(=O)Nc3cccc(C)c3)c2)cnc1N | –
35 | 10 ×10⁻⁶ cm/s | – | – | CNC(=O)c1nc(-c2cccc(NS(=O)(=O)c3ccccc3)c2)cnc1N | –
